Laboratory results reported in paper PMC11796312, “Multifunctional, Fluorene‐Based Modulator of Cholinergic and GABAergic Neurotransmission as a Novel Drug Candidate for Palliative Treatment of Alzheimer's Disease” (Angewandte Chemie (International Ed. in English), 2024).
Where “and” joins values, the source holds several entries; their conditions need not be identical. Equal values may be shown once. Entries after “also recorded” stand apart in the source; their conditions may differ.

Tests used:
ICR-CD1 mice = assay: Acute toxicity study i.p. (MTD, biochemistry, histopathology); format: in vivo; design: key to prostration / tremor / convulsions / hyper/hypoventilation / drop of eyelids / ataxia / stooped posture: mild (+); moderate (++); severe (+++); settings: for stooped posture: Female 1
Experimental: (§1) Toxicology and pharmacokinetic in vivo study
(§2) ICR-CD1 mice weighing 20–25 g were purchased from Velaz (Prague, Czech Republic).
(§3) They were kept in an air-conditioned room with the light from 07:00 to 19:00 hours and were allowed access to standard food and tap water ad libitum. The mice were divided into groups […]
(§4) Ethical approval statement
(§5) The experimental animals were handled under the supervision of the Ethics Committee of the […]
(§6) 706288/2023-1457) and the treatment of animals was in full accordance with ethical standards laid down in respective Czech and EU regulations.
(§7) Design of in vivo experiments
(§8) Acute toxicity study – Maximal tolerated dose, biochemical analysis, and histopathologic […]
(§9) Mice (ICR-CD1, Velaz, Prague, Czech Republic) were randomly assigned to the experimental groups of two males and two females per one applied dose of 6. 6 was administered intraperitoneally (i.p., 0.1 mL/10 g of animal weight; 1% Tween 80). Several doses were administered to identify the toxic profile of tested compounds and establish the Maximal Tolerated Dose (MTD, i.p.). Treated animals were intensively observed for signs of toxicity, such as respiratory, cardiovascular, and nervous system disability. Weight loss or reduced food consumption was assessed according to the FELASA classification[39] in the first two hours and then periodically for the subsequent 46 hours. The toxicity signs were classified according to a previously published study.[40]
(§10) All animals surviving the 48 hours were deeply euthanized by CO2 and subjected to basic macroscopic necropsy. The blood was collected for biochemical analysis, and selected organs (kidney and liver) were collected for histopathologic examination.
(§11) Venous blood was collected into heparinized tubes (Scanlab Systems, Prague, Czech Republic). Plasma was subsequently separated (3,000 × g for 10 min, 4 °C) using centrifuge U-320R (Boeco, Hamburg, Germany). The concentration of urea and creatinine and the activity of alanine aminotransferase (ALT), aspartate aminotransferase (AST), alkaline […]
(§12) phosphatase (ALP), amylase, and lactate dehydrogenase (LDH) were measured in the accredited biochemical laboratory of the Department of Clinical Biochemistry and Diagnostics, University Hospital, Hradec Kralove, Czech Republic. Statistical data analysis was performed through IBM SPSS Statistics version 26 (IBM, Armonk, NY, USA) using the Kolmogorov-Smirnov and Shapiro-Wilk tests to test data normality. Due to normally distributed data, the Student´s t-test was used to assess the differences compared with the control group (p ≤ 0.05).
(§13) Samples of the liver and kidney were used for standard histopathological examination. Organs were fixed with 10% neutral buffered formalin (Bamed s.r.o., Ceske Budejovice, Czech Republic), histologically processed, and stained with hematoxylin and eosin (both Merck) according to Pejchal et al.[41] The histopathological changes were evaluated using a BX-51 microscope (Olympus, Tokyo, Japan). […]
(§14) The time intervals
(§15) PK studies). The samples were centrifuged at 3,000 × g for 10 min (10 °C), and the plasma samples were stored at -80 °C until the HPLC analysis.

[1] = as above; format: in vivo, mice; design: key to prostration / tremor / convulsions / hyper/hypoventilation / drop of eyelids / ataxia / stooped posture: mild (+); moderate (++); severe (+++); settings: both sexes, ICR-CD1, mouse, in vivo, ip, male and female mice; read-out: maximal tolerated dose (MTD)
Experimental: as §1, §2, §3, §4, §5, §6, §7, §8, §9, §10, §11, §12, §13, §14, §15

[2] = 20 mg/kg i.p., Male 1, Female 1, Female 2
[3] = 40 mg/kg i.p., Male 1, Female 1, Female 2
[4] = 60 mg/kg i.p., Male 1, Male 2, Female 2
[5] = female mice, 10 mg/kg, Female 1, Female 2
[6] = female mice, 20 mg/kg, Female 1, Female 2
[7] = female mice, 40 mg/kg, Female 1, Female 2
[8] = female mice, 60 mg/kg, Female 1, Female 2
[9] = male mice, 10 mg/kg i.p., Male 1, Male 2
[10] = male mice, 20 mg/kg i.p., Male 1
[11] = male mice, 20 mg/kg i.p., Male 1, Male 2
[12] = male mice, 40 mg/kg i.p., Male 1, Male 2
[13] = male mice, 60 mg/kg i.p., Male 1, Male 2
[14] = male mice, 60 mg/kg i.p., Male 1, Male 2, 60 mg/kg

For `O[C@H](CNCC1CC1)[C@H](Cc1ccccc1)NC1c2ccccc2-c2ccccc21` [Compound 6], the “signs of poisoning at MTD” value (ICR-CD1 mice; 10 mg/kg i.p.) was “mild to moderate signs of poisoning may occur”, the “ALP, plasma” value (ICR-CD1 mice; 10 mg/kg i.p., 48 h) was 68.4 ± 27.2 U/L and the “ALT, plasma” value (ICR-CD1 mice; 10 mg/kg i.p., 48 h) was 29.0 ± 6.5 U/L. The “AST, plasma” value (ICR-CD1 mice; 10 mg/kg i.p., 48 h) was 56.8 ± 6.6 U/L, the “Amylase, plasma” value (ICR-CD1 mice; 10 mg/kg i.p., 48 h) was 2960 ± 500 U/L and 2955 ± 501 U/L and the “LDH, plasma” value (ICR-CD1 mice; 10 mg/kg i.p., 48 h) was 275 ± 94 U/L. For the same compound, the “Urea, plasma” value (ICR-CD1 mice; 10 mg/kg i.p., 48 h) was 33.8 ± 8.2 mg/dL, the “blood biochemistry vs control” value (ICR-CD1 mice; 10 mg/kg i.p., 48 h, Student's t-test) was “No significant differences” and the Necropsy (ICR-CD1 mice; 10 mg/kg i.p., 48 h, table lines in order Male 1, Male 2, Female 1, Female 2) was “no macroscopic pathology; also recorded: no findings; also recorded: mild hyperemia in the peritoneal cavity”. For the same compound, the “Histopathological findings, liver and renal tissue” value (“Histopathological findings” for short) (ICR-CD1 mice; 10 mg/kg i.p., table lines in order Male 1, Male 2, Female 1, Female 2) was “no tissue damage; also recorded: dg: mild peritoneal irritation; also recorded: no findings”, the “ALP, plasma” value (ICR-CD1 mice; 20 mg/kg i.p., N = 3) was 60.4 ± 28.6 U/L and the “ALT, plasma” value (ICR-CD1 mice; 20 mg/kg i.p., N = 3) was 27.0 ± 15.6 U/L. The “AST, plasma” value (ICR-CD1 mice; 20 mg/kg i.p., N = 3) was 55.6 ± 6.7 U/L, the “Amylase, plasma” value (ICR-CD1 mice; 20 mg/kg i.p., N = 3) was 3129 ± 444 U/L and the “LDH, plasma” value (ICR-CD1 mice; 20 mg/kg i.p., N = 3) was 223 ± 38 U/L. For the same compound, the “Urea, plasma” value (ICR-CD1 mice; 20 mg/kg i.p., N = 3) was 31.8 ± 6.7 mg/dL, the “Histopathological findings” value (ICR-CD1 mice; [2]) was “dg: peritonitis” and the Necropsy (ICR-CD1 mice; [2]) was “moderate hyperemia in the abdominal cavity”. The “ALP, plasma” value (ICR-CD1 mice; 40 mg/kg i.p., N = 3) was 63.5 ± 26.9 U/L, the “ALT, plasma” value (ICR-CD1 mice; 40 mg/kg i.p., N = 3) was 57.1 ± 16.5 U/L and the “AST, plasma” value (ICR-CD1 mice; 40 mg/kg i.p., N = 3) was 82.4 ± 54.0 U/L. The “Amylase, plasma” value (ICR-CD1 mice; 40 mg/kg i.p., N = 3) was 3485 ± 894 U/L, the “LDH, plasma” value (ICR-CD1 mice; 40 mg/kg i.p., N = 3) was 511 ± 423 U/L and the “Urea, plasma” value (ICR-CD1 mice; 40 mg/kg i.p., N = 3) was 93.6 ± 60.4 mg/dL. For the same compound, the “Histopathological findings” value (ICR-CD1 mice; [3]) was “dg: severe peritonitis”, the Necropsy (ICR-CD1 mice; [3]) was “dilatation of small and large intestine loops; also recorded: dilatation of the stomach, small and large” and the “ALP, plasma” value (ICR-CD1 mice; 60 mg/kg i.p., N = 3) was 71.4 ± 23.4 U/L. For the same compound, the “ALT, plasma” value (ICR-CD1 mice; 60 mg/kg i.p., N = 3) was 230.4 ± 140.7 U/L, the “AST, plasma” value (ICR-CD1 mice; 60 mg/kg i.p., N = 3) was 318.0 ± 213.7 U/L and the “Amylase, plasma” value (ICR-CD1 mice; 60 mg/kg i.p., N = 3) was 3723 ± 448 U/L. The “LDH, plasma” value (ICR-CD1 mice; 60 mg/kg i.p., N = 3) was 1101 ± 562 U/L, the “Urea, plasma” value (ICR-CD1 mice; 60 mg/kg i.p., N = 3) was 142.9 ± 145.2 mg/dL and the “Histopathological findings” value (ICR-CD1 mice; [4]) was “dg: severe peritonitis”. For the same compound, the Necropsy (ICR-CD1 mice; [4]) was “dilatation of small and large intestine loops”, the hyper/hypoventilation (ICR-CD1 mice; female mice, 10 mg/kg i.p., lines in order Female 1, Female 2) was “+” and the drop of eyelids (ICR-CD1 mice; [5]) was “+”. For the same compound, the prostration (ICR-CD1 mice; [5]) was “+”, the tremor (ICR-CD1 mice; [5]) was “+ and ++” and the convulsions (ICR-CD1 mice; female mice, 10 mg/kg, Female 2) was “+”. For the same compound, the stooped posture (ICR-CD1 mice; female mice, 20 mg/kg) was “+”, the drop of eyelids (ICR-CD1 mice; [6]) was “+” and the hyper/hypoventilation (ICR-CD1 mice; [6]) was “+”. For the same compound, the prostration (ICR-CD1 mice; [6]) was “++”, the tremor (ICR-CD1 mice; [6]) was “+ and ++” and the “weight at 24 h (%)” value (ICR-CD1 mice; [6]) was -4.2% and -1.8%. For the same compound, the “weight at 48 h (%)” value (ICR-CD1 mice; [6]) was -6.5% and 0.0%, the drop of eyelids (ICR-CD1 mice; [7]) was “+” and the hyper/hypoventilation (ICR-CD1 mice; [7]) was “++”. The tremor (ICR-CD1 mice; [7]) was “+”, the “weight at 24 h (%)” value (ICR-CD1 mice; [7]) was -4.5% and -3.5% and the “weight at 48 h (%)” value (ICR-CD1 mice; [7]) was -9.1% and -7.1%. The stooped posture (ICR-CD1 mice; female mice, 60 mg/kg) was “+”, the drop of eyelids (ICR-CD1 mice; [8]) was “+” and the hyper/hypoventilation (ICR-CD1 mice; [8]) was “++”. The tremor (ICR-CD1 mice; [8]) was “+”, the “weight at 24 h (%)” value (ICR-CD1 mice; [8]) was -5.0% and -6.6% and the mortality (ICR-CD1 mice; female mice, 60 mg/kg, Female 1, before the 48-hour check-up) was “died overnight”. The “weight at 48 h (%)” value (ICR-CD1 mice; female mice, 60 mg/kg, Female 2) was -7.5%, the prostration (ICR-CD1 mice; [9]) was “+” and the tremor (ICR-CD1 mice; [9]) was “+”. The hyper/hypoventilation (ICR-CD1 mice; male mice, 10 mg/kg i.p., lines in order Male 1, Male 2) was “+”, the “weight at 24 h (%)” value (ICR-CD1 mice; [10]) was -0.2% and the “weight at 48 h (%)” value (ICR-CD1 mice; [10]) was “+1.0%”. For the same compound, the ataxia (ICR-CD1 mice; [11]) was “+”, the drop of eyelids (ICR-CD1 mice; [11]) was “+” and the hyper/hypoventilation (ICR-CD1 mice; [11]) was “+”. The prostration (ICR-CD1 mice; [11]) was “++”, the tremor (ICR-CD1 mice; [11]) was “+” and the convulsions (ICR-CD1 mice; male mice, 20 mg/kg i.p., Male 2) was “+++”. For the same compound, the mortality (ICR-CD1 mice; male mice, 20 mg/kg i.p., Male 2, before the 24-hour check-up) was “died overnight”, the “weight at 48 h (%)” value (ICR-CD1 mice; male mice, 40 mg/kg i.p., Male 1) was -6.7% and the drop of eyelids (ICR-CD1 mice; [12]) was “+”. The hyper/hypoventilation (ICR-CD1 mice; [12]) was “++”, the prostration (ICR-CD1 mice; [12]) was “++” and the tremor (ICR-CD1 mice; [12]) was “+”. For the same compound, the “weight at 24 h (%)” value (ICR-CD1 mice; male mice, 40 mg/kg i.p., Male 1, Male 2, 40 mg/kg) was -6.1% and -7.0%, the mortality (ICR-CD1 mice; male mice, 40 mg/kg i.p., Male 2, before the 48-hour check-up) was “died overnight” and the ataxia (ICR-CD1 mice; male mice, 60 mg/kg i.p., Male 1) was “+”. The drop of eyelids (ICR-CD1 mice; [13]) was “+”, the hyper/hypoventilation (ICR-CD1 mice; [13]) was “++” and the prostration (ICR-CD1 mice; [13]) was “+++”. The tremor (ICR-CD1 mice; [13]) was “+”, the “weight at 24 h (%)” value (ICR-CD1 mice; [14]) was -3.6% and -10.5% and the “weight at 48 h (%)” value (ICR-CD1 mice; [14]) was -16.0% and -15.6%. The MTD at 48 h [1] was 10 mg/kg.
